The source of these data is US12419305B2, “Antimicrobial compositions” (Firmenich SA, priority 2018, dated 2025).

In assay [1] the test system is Pseudomonas aeruginosa ATCC 15442. Nature of the assay: BCT test (bacterial contact time), 60 s, log reduction / effect fraction; CI by Compusyn. Type of assay: cell-based. The following applies: BCT 60 s, in 25% EtOH; for log reduction at 0.3 % strength: Dose 0.3 % w/v; for log reduction at 0.45 % strength: Dose 0.45 % w/v. How it is done:
(§1) E. coli, S. aureus, P. aeruginosa, and S. enterica: Separate suspensions of the E. coli ATCC 10536 strain, S. aureus ATCC 6538 strain, Pseudomonas aeruginosa ATCC 15442 strain, and the Salmonella enterica ATCC 10708 strain were prepared as follows: Stock cultures (stored at −80° C.) were thawed and sub-cultured onto Tryptic Soy Agar (TSA) agar plate media, and incubated at 37° C. for 24 h to obtain single colonies. Single colonies of the primary cultures were streaked onto TSA plates and incubated at 37° for 24 h to generate secondary cultures. Single colonies of secondary cultures picked and used to inoculate into 50 mL of TSB broth. The inoculated TSB broth was incubated at 37° C. at 180 rpm for 18 h. Aliquots (0.5 ml) of the 18 h culture were inoculated into 50 ml of fresh TSB broth, and incubated at 37° C. at 180 rpm for 2-3 hours. When the OD600 nm value of the broth reached 1-2, cells were harvested by centrifugation at 5000 rpm for 10 min, and then resuspended in fresh TSB broth at a concentration of 1-5×10^8 CFU/mL. These suspensions were used as the bacterial suspensions for the BCT test.
(§2) BCT Test: Test compositions at a range of concentrations (either combinations of more than one perfume ingredient, and comparative compositions comprising the single perfume ingredients) were prepared in ethanol. Five replicates of each test composition were added into 96-well microtiter plates (120 μl per well), with row B containing control compositions containing the ethanol solution alone. 120 μl of bacterial cell suspensions at a concentration of approximately 1×10^8 bacteria per mL (as prepared above) were added to each well of the microtiter plate. The bacterial suspensions were incubated with the test solutions for 45, 60, or 120 seconds. Following the incubation of the bacterial suspensions with the test solutions, serial dilutions of the bacterial suspensions were generated (three serial 1:10 dilutions, followed by 17 serial 1:2 dilutions), in multiwell microtiter plates.
(§3) Each plate was sealed and incubated at 37° C. under agitation (180 rpm). After incubation, the turbidity of the wells (OD600 nm) was determined using a Tecan microplate reader. Turbid wells were regarded as positive growth, due to the presence of viable cells. The total number of viable cells (log CFU) for each sample was calculated. And the log reduction for each test composition at the final concentration (dose) was calculated against the control sample of the ethanol solution.
(§4) Determination of Synergy via the Combination Index (CI): The CI was calculated using Compusyn software (ComboSyn, Inc., as created by Dr. Dorothy Chou in 2005), according to the manufacturer's instructions. The concentration of each test composition (combinations of more than one perfume ingredient, and comparative compositions comprising the single perfume ingredients used to generate the combination) and their corresponding effect fraction was entered, and the corresponding CI calculated.
(§5) When the calculated CI values were less than 0.9, the combination of perfume ingredients was regarded as having synergistic effect. When the calculated CI was between 1.0 a 0.9, the combination of perfume ingredients was regarded as having an additive effect. When the calculated CI was greater than 1.0, the combination of perfume ingredients was regarded as having an antagonistic effect.

In another assay the test system is E. coli ATCC 10536. Nature of the assay: BCT test (bacterial contact time), 45 s, log reduction / effect fraction; CI by Compusyn. The following applies: 45 s, in 20% EtOH; for log reduction at 0.55 % strength: dose 0.550 % w/v; for log reduction at 0.6 % strength: dose 0.600 % w/v. The format is cell-based, Escherichia coli. How it is done: as §1, §2, §3, §4, §5

Another assay concerns S. aureus ATCC 6538. The assay can be described thus: BCT test (bacterial contact time), 60 s, log reduction / effect fraction; CI by Compusyn. Type of assay: cell-based, Staphylococcus aureus. The following applies: Staphylococcus aureus, ATCC6538, 1 min, 60 s, in 25% EtOH; for log reduction at 0.5 % strength: dose 0.500 % w/v; for log reduction at 0.6 % strength: dose 0.600 % w/v; for log reduction at 0.7 % strength: dose 0.700 % w/v. How it is done:
as §1, §2, §3, §4, §5

The mark [2] stands for this setting: Pseudomonas aeruginosa, ATCC15442, 1 min, read-out: Log reduction.
The mark [3] stands for this setting: Escherichia coli, ATCC10536, 45 s, read-out: Log reduction.
[4] abbreviates: Pseudomonas aeruginosa, ATCC15442, 1 min.
Setting [5] is: Escherichia coli, ATCC10536, 45 s.

Structures are written as SMILES. Read-outs that look alike come from different tables or passages of the source.

As for `COc1ccc(C=O)cc1` [Aldehyde Anisic, 4-methoxybenzaldehyde], the log reduction at 0.3 % strength in assay [1] (setting [2]) came to 0.6. Also, the log reduction at 0.35 % strength in assay [1] (Pseudomonas aeruginosa, ATCC15442, 1 min, Dose 0.35 % w/v) was 1.6. For the same compound, the log reduction at 0.45 % strength in assay [1] (setting [2]) worked out at 6.2; with E. coli ATCC 10536 (Escherichia coli, ATCC10536, 45 s, dose 0.450 % w/v, read-out: Log reduction) it was 0.6. Besides, the log reduction at 0.475 % strength in assay [1] (Pseudomonas aeruginosa, ATCC15442, 1 min, Dose 0.475 % w/v) worked out at 5.9. Further, the log reduction at 0.5 % strength was found to be 7 in assay [1] (Pseudomonas aeruginosa, ATCC15442, 1 min, Dose 0.5 % w/v); 2.7 in the assay on E. coli ATCC 10536 (Escherichia coli, ATCC10536, 45 s, dose 0.500 % w/v); 0.7 in the assay on S. aureus ATCC 6538 (read-out: Log reduction). Besides, the log reduction at 0.4 % strength with E. coli ATCC 10536 (Escherichia coli, ATCC10536, 45 s, dose 0.400 % w/v) stood at 0.3. Also, in the assay with E. coli ATCC 10536 (setting [3]), the log reduction at 0.55 % strength amounted to 6.7. Further, the log reduction at 0.6 % strength was 7.3 with E. coli ATCC 10536 (setting [3]) and 2.3 in the assay with S. aureus ATCC 6538 (read-out: Log reduction). In addition, in the assay with S. aureus ATCC 6538 (dose 0.650 % w/v), the log reduction at 0.65 % strength is 3.5. Further, in the assay with S. aureus ATCC 6538 (read-out: Log reduction), the log reduction at 0.7 % strength turned out to be 5.9. The log reduction at 0.8 % strength with S. aureus ATCC 6538 (dose 0.800 % w/v) is 6.9.
Regarding `O=Cc1ccc2c(c1)OCO2` [Heliotropine, 1,3-benzodioxole-5-carbaldehyde], the Log reduction in assay [1] (Dose 0.2 % w/v) is 0.00. Further, in assay [1] (Pseudomonas aeruginosa, ATCC15442, 1 min, Dose 0.2 % w/v), the log reduction at 0.2 % strength amounted to 0. In addition, in assay [1] (setting [4]), the log reduction at 0.3 % strength was determined as 0.6 and the log reduction at 0.45 % strength worked out at 4.1. Further, in assay [1] (Pseudomonas aeruginosa, ATCC15442, 1 min, Dose 0.4 % w/v), the log reduction at 0.4 % strength stood at 3.4. Further, the log reduction at 0.55 % strength in assay [1] (Pseudomonas aeruginosa, ATCC15442, 1 min, Dose 0.55 % w/v) was determined as 7.6. Further, the log reduction at 0.45 % strength in the assay on E. coli ATCC 10536 (Escherichia coli, ATCC10536, 45 s, dose 0.450 % w/v) stood at 0.1. In the assay with E. coli ATCC 10536 (setting [5]), the log reduction at 0.55 % strength came out at 5.3 and the log reduction at 0.6 % strength was determined as 7.3. In addition, the Log reduction in the assay with E. coli ATCC 10536 (dose 0.450 % w/v) worked out at 0.1. Besides, in the assay with S. aureus ATCC 6538, the log reduction at 0.5 % strength was 0.7, the log reduction at 0.6 % strength came out at 2.7 and the log reduction at 0.7 % strength came out at 6.1. Also, in the assay on S. aureus ATCC 6538 (dose 0.750 % w/v), the log reduction at 0.75 % strength stood at 7.1. Moreover, in the assay on S. aureus ATCC 6538 (dose 1.000 % w/v), the log reduction at 1 % strength was determined as 7.1.
